10 compounds from patent publication US20230183216A1, “PYRIDIZIN-3(2H)-ONE DERIVATIVES” (Gilead Sciences, Inc., priority 2021, published 2023) can be followed below.

Where only a bound is given, the exact number is not on record here.

Usually IC50 stands for the midpoint of a concentration-inhibition curve. A word on the EC50: it is the concentration giving half of the maximal effect.

In one assay the target is T1, PARP7 (Homo sapiens, UniProt Q7Z3E1).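 Note: MSD light signal quantifying PARP7 captured by a plate-immobilized probe, read after 1.5 h equilibration plus 1.5 h with SULFO-TAG anti-GST antibody at room temperature.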
T1 sequence (Q7Z3E1 1-657): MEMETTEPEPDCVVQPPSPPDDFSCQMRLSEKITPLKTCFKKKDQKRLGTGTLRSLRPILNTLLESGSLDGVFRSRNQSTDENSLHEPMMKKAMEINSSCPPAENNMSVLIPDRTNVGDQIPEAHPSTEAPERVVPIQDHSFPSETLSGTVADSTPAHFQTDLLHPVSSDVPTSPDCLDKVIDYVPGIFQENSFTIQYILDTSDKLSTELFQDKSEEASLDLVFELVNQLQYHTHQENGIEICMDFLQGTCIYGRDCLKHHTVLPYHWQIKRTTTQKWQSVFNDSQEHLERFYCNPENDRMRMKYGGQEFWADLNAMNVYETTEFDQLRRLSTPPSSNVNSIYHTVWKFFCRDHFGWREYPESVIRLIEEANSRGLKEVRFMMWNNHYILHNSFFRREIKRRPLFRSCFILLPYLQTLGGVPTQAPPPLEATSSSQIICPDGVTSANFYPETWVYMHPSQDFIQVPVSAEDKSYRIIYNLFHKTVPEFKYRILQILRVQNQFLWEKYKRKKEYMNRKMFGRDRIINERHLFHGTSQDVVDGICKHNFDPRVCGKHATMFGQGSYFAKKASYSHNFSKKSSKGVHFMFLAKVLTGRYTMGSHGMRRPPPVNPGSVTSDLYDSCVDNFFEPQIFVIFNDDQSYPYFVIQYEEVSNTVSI
The assay is described as follows: biochemical.

The subject of assay [1] is STAT1 (phosphorylated at Tyr701) in NCI-H1373 cells. Briefly: Phospho-STAT1 (Tyr701) LANCE Ultra TR-FRET Detection Assay. Type of assay: cell-based. The following applies: Homo sapiens, 48 hours, induction of pSTAT1, normalized to 10 uM positive control and DMSO, 4-parameter fit, read-out: NH1373 pSTAT1 EC50. How it is done:
Phospho-STAT1 (Tyr701 LANCE Ultra TR-FRET Detection Assay
LANCE Ultra phospho-STAT1 (Tyr701) kits available from Perkin Elmer are designed for the detection of phosphorylated STAT1 in cell lysates using a simple, homogeneous LANCE Ultra sandwich assay (Cat. #TRF4028M). This assay is intended for assessing compound induction of endogenous levels of cellular STAT1 (phosphorylated at Tyr701) in NCI-H1373 cells. The NCI-H1373 cells are cultured in RPMI 1640 media containing 10% heat inactivated FBS, GlutaMAX, 1% Penicillin-Streptomycin. An Echo acoustic liquid handler is used to transfer 60 nanoliters of compound dilutions using the Echo Qualified, 384-well polypropylene microplate clear flat bottom source plates into a Greiner (#781080) cell culture microplate. NCI-H1373 cells are seeded into these compound-spotted culture plates at 30,000 cells/well in a 60 uL volume in growth media. The plates are incubated in a 5% CO2 humidified incubator at 37° C. for 48 hours. […] Briefly, 20 μL of supplemented lysis buffer is added to each well and allowed to shake for 1 hour at 400 rpm. Next, 5 ul of remixed antibody solutions (vol/vol) prepared in detection buffer are added to each well and allowed to incubate at room temperature overnight. After spinning the plate down at 300 rpm for […], the plate is read on an EnVision plate reader set up for Eu3+ Cryptate and fluorescence emission is measured at two different wavelengths (665 nm and 620 nm).
In general terms: Time-resolved FRET reads energy transfer from a long-lived donor to a nearby acceptor.

Consider `O=C(OCCNc1cc(C(F)(F)F)c(=O)[nH]n1)N1CCN(c2ncc(C(F)(F)F)cn2)CC1` [Example 20, 2-((6-oxo-5-(trifluoromethyl)-1,6-dihydropyridazin-3-yl)amino)ethyl4-(5-(trifluoromethyl)pyrimidin-2-yl)piperazine-1-carboxylate], for which the IC50 against PARP7 came to 1.76 nM. Besides, the EC50 in assay [1] was no less than 10000 nM.
Consider `O=c1[nH]nc(NCCCS(=O)(=O)N2CCN(c3ncc(C(F)(F)F)cn3)CC2)cc1C(F)(F)F` [Example 21, 4-(trifluoromethyl)-6-((3-((4-(5-(trifluoromethyl)pyrimidin-2-yl)piperazin-1-yl)sulfonyl)propyl)amino)pyridazin-3(2H)-one], for which the IC50 against PARP7 worked out at 18.6 nM. Further, the EC50 in assay [1] was no less than 10000 nM.
In the same order, the values of `O=C([C@@H]1C[C@H]1CNc1cc(C(F)(F)F)c(=O)[nH]n1)N1CCN(c2ncc(C(F)(F)F)cn2)CC1` [Example 22, 4-(trifluoromethyl)-6-((((1R,2R)-2-(4-(5-(trifluoromethyl)pyrimidin-2-yl)piperazine-1-carbonyl)cyclopropyl)methyl)amino)pyridazin-3(2H)-one] are 2.57 nM and no less than 10000 nM.
In the same order, the values of `O=C(CCCCNc1cc(C(F)(F)F)c(=O)[nH]n1)N1CCN(c2ncc(C(F)(F)F)cn2)CC1` [Example 23, 6-((5-oxo-5-(4-(5-(trifluoromethyl)pyrimidin-2-yl)piperazin-1-yl)pentyl)amino)-4-(trifluoromethyl)pyridazin-3(2H)-one] are 0.521 nM and 532 nM.
The corresponding values for `O=C([C@@H](O)CCNc1cc(C(F)(F)F)c(=O)[nH]n1)N1CCN(c2ncc(C(F)(F)F)cn2)CC1` [Example 25, (S)-6-((3-hydroxy-4-oxo-4-(4-(5-(trifluoromethyl)pyrimidin-2-yl)piperazin-1-yl)butyl)amino)-4-(trifluoromethyl)pyridazin-3(2H)-one] are 0.141 nM and 21.3 nM.
`O=C([C@H](O)CCNc1cc(C(F)(F)F)c(=O)[nH]n1)N1CCN(c2ncc(C(F)(F)F)cn2)CC1` [Example 26, (R)-6-((3-hydroxy-4-oxo-4-(4-(5-(trifluoromethyl)pyrimidin-2-yl)piperazin-1-yl)butyl)amino)-4-(trifluoromethyl)pyridazin-3(2H)-one] had an IC50 against PARP7 of 1.6 nM. Also, the EC50 in assay [1] came out at 901 nM.
The corresponding values for `O=C(CC[C@@H]1CCCN1c1cc(C(F)(F)F)c(=O)[nH]n1)N1CCN(c2ncc(C(F)(F)F)cn2)CC1` [Example 27, (S)-6-(2-(3-oxo-3-(4-(5-(trifluoromethyl)pyrimidin-2-yl)piperazin-1-yl)propyl)pyrrolidin-1-yl)-4-(trifluoromethyl)pyridazin-3(2H)-one] are 0.212 nM and 9.31 nM.
With `O=C([C@@H]1CCCCN1c1cc(C(F)(F)F)c(=O)[nH]n1)N1CCN(c2ncc(C(F)(F)F)cn2)CC1` [Example 28, (S)-4-(trifluoromethyl)-6-(2-(4-(5-(trifluoromethyl)pyrimidin-2-yl)piperazine-1-carbonyl)piperidin-1-yl)pyridazin-3(2H)-one], at PARP7, the half-inhibitory concentration (IC50) turned out to be 0.879 nM. Further, the EC50 in assay [1] came to 264 nM.
The corresponding values for `CN(c1cccc(C(=O)N2CCN(c3ncc(C(F)(F)F)cn3)CC2)c1)c1cc(C(F)(F)F)c(=O)[nH]n1` [Example 29, 6-(methyl(3-(4-(5-(trifluoromethyl)pyrimidin-2-yl)piperazine-1-carbonyl)phenyl)amino)-4-(trifluoromethyl)pyridazin-3(2H)-one] are 30.6 nM and no less than 10000 nM.
At PARP7, `O=C(C[C@@H]1CCCCN1c1cc(C(F)(F)F)c(=O)[nH]n1)N1CCN(c2ncc(C(F)(F)F)cn2)CC1` [Example 30, (S)-6-(2-(2-oxo-2-(4-(5-(trifluoromethyl)pyrimidin-2-yl)piperazin-1-yl)ethyl)piperidin-1-yl)-4-(trifluoromethyl)pyridazin-3(2H)-one] yielded an IC50 of 2.32 nM. Also, the EC50 in assay [1] is 779 nM.
